The test system of one data set is SUM52 cells. As to the kind of experiment: Oxic and anoxic anti-proliferative activity of the prodrugs. Particulars: for Hypoxic Cytotoxicity Ratio (HCR), SUM52: ratio of oxic and anoxic IC50.
The target in another data set is T1, FGFR1 (Homo sapiens, UniProt P11362).
T1 construct: purchased Invitrogen
As to the kind of experiment: Isolated enzyme FRET-based Z-Lyte kinase inhibition assay. It is filed as biochemical. Particulars: means from 3 independent experiments; read-out: Isolate Enzyme Inhibition IC50, FGFR1. The protocol: (§1) FGFR1-4 and the Z-Lyte Kinase Assay Kit were purchased from Invitrogen. The concentration gradients from 5.1×10^−11 to 1.0×10^−6 mol/L were used for all the test compounds. The experiments were performed according to the instructions of the manufacturer.
(§2) FGFR1-4 isolated enzyme activity was determined using the FRET-based Z-Lyte kinase inhibition assay. The data are the means from 3 independent experiments.

Another data set deals with T2, FGFR2 (Homo sapiens, UniProt P21802).
T2 construct: purchased Invitrogen
T2 sequence (P21802 22-821): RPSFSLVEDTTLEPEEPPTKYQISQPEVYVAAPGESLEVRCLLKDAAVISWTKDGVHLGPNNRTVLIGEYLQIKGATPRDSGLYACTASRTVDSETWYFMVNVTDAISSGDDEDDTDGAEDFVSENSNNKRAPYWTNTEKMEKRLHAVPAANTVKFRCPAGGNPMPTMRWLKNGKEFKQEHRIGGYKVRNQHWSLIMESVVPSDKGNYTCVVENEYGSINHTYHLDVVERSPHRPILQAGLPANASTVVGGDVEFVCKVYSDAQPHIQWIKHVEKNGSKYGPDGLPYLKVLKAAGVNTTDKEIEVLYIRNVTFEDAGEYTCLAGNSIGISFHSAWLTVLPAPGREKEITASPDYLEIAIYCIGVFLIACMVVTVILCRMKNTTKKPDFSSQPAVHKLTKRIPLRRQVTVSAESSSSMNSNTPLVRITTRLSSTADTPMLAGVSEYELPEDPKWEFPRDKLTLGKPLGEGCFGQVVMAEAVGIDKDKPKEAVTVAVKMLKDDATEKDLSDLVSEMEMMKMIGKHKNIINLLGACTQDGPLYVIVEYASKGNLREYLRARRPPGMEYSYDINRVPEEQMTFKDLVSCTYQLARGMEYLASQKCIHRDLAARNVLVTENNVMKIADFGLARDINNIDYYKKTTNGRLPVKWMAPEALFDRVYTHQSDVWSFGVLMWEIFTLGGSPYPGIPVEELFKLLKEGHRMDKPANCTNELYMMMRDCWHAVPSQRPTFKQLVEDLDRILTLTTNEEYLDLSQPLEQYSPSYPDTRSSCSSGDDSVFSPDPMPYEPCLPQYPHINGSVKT
The description is as above. It is filed as biochemical. To be noted: means from 3 independent experiments; read-out: Isolate Enzyme Inhibition IC50, FGFR2. The method, then: as §1, §2

Another data set has as its target T3, FGFR3 (Homo sapiens, UniProt P22607).
T3 construct: purchased Invitrogen
The description is as above. The class given is biochemical. Particulars: means from 3 independent experiments; read-out: Isolate Enzyme Inhibition IC50, FGFR3. The protocol:
as §1, §2

Data set [1] has as its system FGFR1 in H520 cells (phospho-ERK1/2). As to the kind of experiment: Drug washout Western blot assay, H520 cells. It is filed as cell-based. To be noted: H520; 30 min exposure, 100 nM, with and without washout. A general note: Immunoblotting shows a protein as a band on a membrane.
For data set [2], the system named is FGFR3 in SW780 cells (phospho-ERK1/2). As to the kind of experiment: Drug washout Western blot assay, SW780 cells. It is filed as cell-based. Particulars: SW780; 30 min exposure, 100 nM, with and without washout.
Where [3] appears, read: read-out: Cellular Anti-proliferative IC50, SUM52, Anoxic, 4 hours of anoxia, remainder of assay oxic.
Where [4] appears, read: read-out: Cellular Anti-proliferative IC50, SUM52, Oxic, oxic conditions.

The record followed here is patent publication US11192890B2, “FGFR kinase inhibitors and pharmaceutical uses” (AUCKLAND UNISERVICES LIMITED, priority 2017, dated 2021).

Like-named read-outs stand apart in the source and are kept apart here.

As usually defined, the melting point is the temperature of the solid-liquid transition. Usually IC50 stands for the concentration needed to halve the response being measured.

T3 sequence (P22607 23-806): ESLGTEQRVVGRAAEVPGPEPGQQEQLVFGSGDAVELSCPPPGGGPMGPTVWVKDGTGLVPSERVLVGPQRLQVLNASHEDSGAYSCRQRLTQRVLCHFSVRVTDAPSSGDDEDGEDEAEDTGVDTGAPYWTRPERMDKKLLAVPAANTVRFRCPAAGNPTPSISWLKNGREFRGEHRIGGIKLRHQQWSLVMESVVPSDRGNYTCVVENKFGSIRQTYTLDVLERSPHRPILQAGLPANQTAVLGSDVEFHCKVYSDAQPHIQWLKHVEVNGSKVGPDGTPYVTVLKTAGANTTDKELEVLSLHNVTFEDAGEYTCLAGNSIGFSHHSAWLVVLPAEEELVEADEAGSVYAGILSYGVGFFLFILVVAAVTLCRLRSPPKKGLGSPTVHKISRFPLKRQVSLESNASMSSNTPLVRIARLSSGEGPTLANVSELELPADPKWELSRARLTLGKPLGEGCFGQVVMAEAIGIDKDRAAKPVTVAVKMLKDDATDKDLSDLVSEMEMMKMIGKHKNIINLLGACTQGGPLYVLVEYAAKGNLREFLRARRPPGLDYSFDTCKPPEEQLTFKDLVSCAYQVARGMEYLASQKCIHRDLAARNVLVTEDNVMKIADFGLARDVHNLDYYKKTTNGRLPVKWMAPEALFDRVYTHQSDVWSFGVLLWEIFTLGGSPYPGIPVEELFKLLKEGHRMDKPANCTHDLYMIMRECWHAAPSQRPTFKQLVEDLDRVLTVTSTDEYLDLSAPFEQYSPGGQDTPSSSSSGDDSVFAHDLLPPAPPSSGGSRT
T1 sequence (P11362 22-822): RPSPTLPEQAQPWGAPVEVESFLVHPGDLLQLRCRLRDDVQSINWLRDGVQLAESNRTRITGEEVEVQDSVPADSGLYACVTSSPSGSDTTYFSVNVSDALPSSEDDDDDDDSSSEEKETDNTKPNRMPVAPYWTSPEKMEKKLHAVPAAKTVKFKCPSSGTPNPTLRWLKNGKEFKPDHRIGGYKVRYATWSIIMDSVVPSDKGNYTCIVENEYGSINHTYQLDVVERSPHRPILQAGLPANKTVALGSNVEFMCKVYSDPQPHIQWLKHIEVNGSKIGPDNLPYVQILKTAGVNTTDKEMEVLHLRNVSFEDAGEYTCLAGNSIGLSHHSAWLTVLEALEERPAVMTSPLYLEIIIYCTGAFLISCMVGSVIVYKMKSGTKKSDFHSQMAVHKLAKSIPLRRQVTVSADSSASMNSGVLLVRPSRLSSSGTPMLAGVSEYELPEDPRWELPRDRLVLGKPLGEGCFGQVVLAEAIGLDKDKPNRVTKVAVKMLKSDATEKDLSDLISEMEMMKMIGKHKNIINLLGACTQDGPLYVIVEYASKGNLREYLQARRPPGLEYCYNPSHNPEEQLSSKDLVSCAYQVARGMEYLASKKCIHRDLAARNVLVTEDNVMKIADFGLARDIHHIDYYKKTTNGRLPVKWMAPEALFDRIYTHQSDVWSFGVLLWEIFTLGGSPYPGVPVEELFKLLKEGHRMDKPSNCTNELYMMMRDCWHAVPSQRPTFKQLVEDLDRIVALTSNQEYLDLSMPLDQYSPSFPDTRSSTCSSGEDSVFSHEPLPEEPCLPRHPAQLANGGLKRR

Consider `COc1cc(OC)c(Cl)c(N2Cc3cnc(Nc4cccnc4)nc3N(C3CCN(C(=O)/C=C/CN(C)C)CC3)C2=O)c1Cl` [Compound 158, (E)-3-(2,6-dichloro-3,5-dimethoxyphenyl)-1-(1-(4-(dimethylamino)but-2-enoyl)piperidin-4-yl)-7-(pyridin-3-ylamino)-3,4-dihydropyrimido[4,5-d]pyrimidin-2(1H)-one], for which the melting point fell in the range of 207 to 209 °C.

The molecule `COc1cc(OC)c(Cl)c(N2Cc3cnc(Nc4ccccc4)nc3N(C3CCN(C(=O)/C=C/C[N+](C)(C)Cc4c([N+](=O)[O-])ncn4C)CC3)C2=O)c1.[Br-]` [Compound 217, (E)-4-(4-(3-(2-chloro-3,5-dimethoxyphenyl)-2-oxo-7-(phenylamino)-3,4-dihydropyrimido[4,5-d]pyrimidin-1(2H)-yl)piperidin-1-yl)-N,N-dimethyl-N-((1-methyl-4-nitro-1H-imidazol-5-yl)methyl)-4-oxobut-2-en-1-aminium bromide] had a melting point of 181 to 184 °C. In addition, the “Hypoxic Cytotoxicity Ratio (HCR), SUM52” value in the data set on SUM52 cells came out at 7. In the data set on SUM52 cells (setting [3]), the IC50 turned out to be 4 nM. Besides, in the data set on SUM52 cells (setting [4]), the IC50 was 24 nM.

For the molecule `COc1cc(OC)c(Br)c(-c2cc3cnc(NC(C)C)cc3n(C3CCN(C(=O)/C=C/C[N+](C)(C)Cc4c([N+](=O)[O-])ncn4C)CC3)c2=O)c1Br.[Br-]` [Compound 216, (E)-4-(4-(3-(2,6-dibromo-3,5-dimethoxyphenyl)-7-(isopropylamino)-2-oxo-1,6-naphthyridin-1(2H)-yl)piperidin-1-yl)-N,N-dimethyl-N-((1-methyl-4-nitro-1H-imidazol-5-yl)methyl)-4-oxobut-2-en-1-aminium bromide], the melting point came out at 219 °C. Also, in the data set with SUM52 cells, the “Hypoxic Cytotoxicity Ratio (HCR), SUM52” value stood at 59. Also, the IC50 in the data set on SUM52 cells (setting [3]) was 6 nM. In addition, the IC50 with SUM52 cells (setting [4]) turned out to be 346 nM.

Take `COc1cc(OC)c(Cl)c(N2Cc3cnc(Nc4ccc(N5CCOCC5)cc4)nc3N(C3CCN(C(=O)/C=C/C[N+](C)(C)Cc4c([N+](=O)[O-])ncn4C)CC3)C2=O)c1.[Br-]` [Compound 219, (E)-4-(4-(3-(2-chloro-3,5-dimethoxyphenyl)-7-((4-morpholinophenyl)amino)-2-oxo-3,4-dihydropyrimido[4,5-d]pyrimidin-1(2H)-yl)piperidin-1-yl)-N,N-dimethyl-N-((1-methyl-4-nitro-1H-imidazol-5-yl)methyl)-4-oxobut-2-en-1-aminium bromide]: the melting point fell in the range of 241 to 244 °C. Besides, the “Hypoxic Cytotoxicity Ratio (HCR), SUM52” value in the data set on SUM52 cells came to 22. Moreover, the IC50 in the data set on SUM52 cells (setting [3]) was determined as 2 nM. Also, in the data set on SUM52 cells (setting [4]), the IC50 came out at 52 nM.

In the case of `CNc1cc2c(cn1)cc(-c1c(Cl)c(OC)cc(OC)c1Cl)c(=O)n2C1CCN(C(=O)/C=C/CN(C)C)CC1` [Compound 148, (E)-3-(2,6-dichloro-3,5-dimethoxyphenyl)-1-(1-(4-(dimethylamino)but-2-enoyl)piperidin-4-yl)-7-(methylamino)-1,6-naphthyridin-2(1H)-one], the melting point lay within 209 to 212 °C.

The molecule `COc1cc(OC)c(Cl)c(-c2cc3cnc(NC(C)C)cc3n(C3CCN(C(=O)/C=C/CN(C)C)CC3)c2=O)c1Cl` [Compound 149, (E)-3-(2,6-dichloro-3,5-dimethoxyphenyl)-1-(1-(4-(dimethylamino)but-2-enoyl)piperidin-4-yl)-7-(isopropylamino)-1,6-naphthyridin-2(1H)-one] showed a melting point of 243 to 246 °C.

As to `COc1cc(OC)c(Cl)c(-c2cc3cnc(NC(C)C)nc3n(C3CCN(C(=O)/C=C/CN(C)C)CC3)c2=O)c1Cl` [Compound 133, (E)-6-(2,6-dichloro-3,5-dimethoxyphenyl)-8-(1-(4-(dimethylamino)but-2-enoyl)piperidin-4-yl)-2-(isopropylamino)pyrido[2,3-d]pyrimidin-7(8H)-one], the IC50 is 1 nM at FGFR1, 1.5 nM at FGFR2 and 11 nM on FGFR3. The “reversible or irreversible inhibition of FGFR1 in cells” value in data set [1] was “potent irreversible inhibitors”. Further, the “reversible or irreversible inhibition of FGFR3 in cells” value in data set [2] is on record as “potent irreversible inhibitors”.

Take `COc1cc(OC)cc(N2Cc3cnc(Nc4ccc(N5CCOCC5)cc4)nc3N(C3CCN(C(=O)/C=C/C[N+](C)(C)Cc4c([N+](=O)[O-])ncn4C)CC3)C2=O)c1.[Br-]` [Compound 220, (E)-4-(4-(3-(3,5-dimethoxyphenyl)-7-((4-morpholinophenyl)amino)-2-oxo-3,4-dihydropyrimido[4,5-d]pyrimidin-1(2H)-yl)piperidin-1-yl)-N,N-dimethyl-N-((1-methyl-4-nitro-1H-imidazol-5-yl)methyl)-4-oxobut-2-en-1-aminium bromide]: the melting point fell in the range of 192 to 195 °C. Further, the “Hypoxic Cytotoxicity Ratio (HCR), SUM52” value in the data set on SUM52 cells is reported as 48. Moreover, the IC50 in the data set with SUM52 cells (setting [3]) came to 36 nM. The half-maximal inhibitory concentration (IC50) with SUM52 cells (setting [4]) stood at 1720 nM.

Regarding `COc1cc(OC)c(Br)c(-c2cc3cnc(NC(C)C)cc3n(C3CCN(C(=O)/C=C/CN(C)C)CC3)c2=O)c1Br` [Compound 155, (E)-3-(2,6-dibromo-3,5-dimethoxyphenyl)-1-(1-(4-(dimethylamino)but-2-enoyl)piperidin-4-yl)-7-(isopropylamino)-1,6-naphthyridin-2(1H)-one], the melting point lay in the range of 251 to 254 °C.

In the case of `COc1cc(OC)c(Cl)c(N2Cc3cnc(Nc4ccc(N5CCOCC5)cc4)nc3N(C3CCN(C(=O)/C=C/C[N+](C)(C)Cc4c([N+](=O)[O-])ncn4C)CC3)C2=O)c1Cl.[Br-]` [Compound 218, (E)-4-(4-(3-(2,6-dichloro-3,5-dimethoxyphenyl)-7-((4-morpholinophenyl)amino)-2-oxo-3,4-dihydropyrimido[4,5-d]pyrimidin-1(2H)-yl)piperidin-1-yl)-N,N-dimethyl-N-((1-methyl-4-nitro-1H-imidazol-5-yl)methyl)-4-oxobut-2-en-1-aminium bromide], the melting point was over 295 °C. In the data set on SUM52 cells, the “Hypoxic Cytotoxicity Ratio (HCR), SUM52” value stood at 4. In addition, in the data set with SUM52 cells (setting [3]), the IC50 came to 3 nM. In addition, the IC50 with SUM52 cells (setting [4]) worked out at 14 nM.

Take `COc1cc(OC)c(Cl)c(N2Cc3cnc(Nc4ccn(C)n4)nc3N(C3CCN(C(=O)/C=C/CN(C)C)CC3)C2=O)c1Cl` [Compound 160, (E)-3-(2,6-dichloro-3,5-dimethoxyphenyl)-1-(1-(4-(dimethylamino)but-2-enoyl)piperidin-4-yl)-7-((1-methyl-1H-pyrazol-3-yl)amino)-3,4-dihydropyrimido[4,5-d]pyrimidin-2(1H)-one]: the melting point was determined as 203 °C.

Molecule `COc1cc(OC)c(Cl)c(N2Cc3cnc(NC4CCOCC4)nc3N(C3CCN(C(=O)/C=C/C[N+](C)(C)Cc4c([N+](=O)[O-])ncn4C)CC3)C2=O)c1Cl.O=C([O-])C(F)(F)F` [Compound 203, (E)-4-(4-(3-(2,6-dichloro-3,5-dimethoxyphenyl)-2-oxo-7-((tetrahydro-2H-pyran-4-yl)amino)-3,4-dihydropyrimido[4,5-d]pyrimidin-1(2H)-yl)piperidin-1-yl)-N,N-dimethyl-N-((1-methyl-4-nitro-1H-imidazol-5-yl)methyl)-4-oxobut-2-en-1-aminium 2,2,2-trifluoroacetate] gave a melting point of 157 to 160 °C. The “Hypoxic Cytotoxicity Ratio (HCR), SUM52” value in the data set on SUM52 cells came out at 26. Further, the IC50 with SUM52 cells (setting [3]) stood at 37 nM. In the data set on SUM52 cells (setting [4]), the IC50 was 961 nM.

On to `COc1cc(OC)c(Cl)c(N2Cc3cnc(Nc4ccncc4)nc3N(C3CCN(C(=O)/C=C/CN(C)C)CC3)C2=O)c1Cl` [Compound 159, (E)-3-(2,6-dichloro-3,5-dimethoxyphenyl)-1-(1-(4-(dimethylamino)but-2-enoyl)piperidin-4-yl)-7-(pyridin-4-ylamino)-3,4-dihydropyrimido[4,5-d]pyrimidin-2(1H)-one], for which the melting point was over 300 °C.

Consider `COc1cc(OC)c(Cl)c(N2Cc3cnc(Nc4ccccn4)nc3N(C3CCN(C(=O)/C=C/CN(C)C)CC3)C2=O)c1Cl` [Compound 157, (E)-3-(2,6-dichloro-3,5-dimethoxyphenyl)-1-(1-(4-(dimethylamino)but-2-enoyl)piperidin-4-yl)-7-(pyridin-2-ylamino)-3,4-dihydropyrimido[4,5-d]pyrimidin-2(1H)-one], for which the melting point was in the range of 224 to 227 °C.

`COc1cc(OC)c(Cl)c(-c2cc3cnc(Nc4ccccc4)cc3n(C3CCN(C(=O)/C=C/CN(C)C)CC3)c2=O)c1Cl` [Compound 232, (E)-3-(2,6-dichloro-3,5-dimethoxyphenyl)-1-(1-(4-(dimethylamino)but-2-enoyl)piperidin-4-yl)-7-(phenylamino)-1,6-naphthyridin-2(1H)-one] gave a melting point of 230 to 233 °C.
